This test addresses Phosphoglycerate mutase 1 (PGAM1) (Homo sapiens, UniProt P18669). The test can be described thus: SPR. In kind it is binding.

This is an account of results in article PMC12337087 (Phytotherapy Research, 2025).

Molecules are shown by their SMILES.

By Kd is commonly meant a measure of binding affinity in units of concentration. Lower therefore signals tighter binding.

Sequence of Phosphoglycerate mutase 1 (PGAM1) (P18669 2-254): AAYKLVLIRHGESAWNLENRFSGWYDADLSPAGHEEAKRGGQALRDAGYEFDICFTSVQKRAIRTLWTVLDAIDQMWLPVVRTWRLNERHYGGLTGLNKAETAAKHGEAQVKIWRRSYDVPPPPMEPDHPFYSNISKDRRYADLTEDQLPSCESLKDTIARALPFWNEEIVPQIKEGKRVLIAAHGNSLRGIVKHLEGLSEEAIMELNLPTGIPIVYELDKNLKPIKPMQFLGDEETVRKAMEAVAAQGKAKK

`Cc1cccc2c3c(ccc12)C1=C(C(=O)C3=O)[C@@H](C)CO1` [DHT, Dihydrotanshinone I] had a Kd of 697 nM.
